In paper PMC5904360, “Soluble N-Ethylmaleimide-Sensitive Factor Attachment Protein Receptor-Derived Peptides for Regulation of Mast Cell Degranulation” (Frontiers in Immunology, 2018):

Test system: NC/Nga mice
Assay: DNCB-induced atopic dermatitis-like skin lesions
Format: in vivo, mouse
Source text: Seven-week-old NC/Nga mice were purchased from the Shizuoka Laboratory Animal Center (Shizuoka, Japan) and allowed to adapt to the environment for a week prior to use. The procedures for the induction of atopic dermatitis-like symptoms in mice using 1-chloro-2,4-dinitro-benzene (DNCB) have been well described previously ([27]). Briefly, the dorsal hair of the mice was shaved 2 days before DNCB administration. For the induction of atopic dermatitis, 1% DNCB was applied to the dorsal skin of the mice twice weekly for 7 days and then 0.2% DNCB was applied thrice weekly for 21 days. The mice were divided into the following […] treatment groups (n = 10 per group): 0.3 and 3% Vp2N/day, 0.3 and 3% Vp8N/day, 0.1% dexamethasone/day, and vehicle only, dorsally administered from 9 to 13 weeks of age. As a negative control for atopic dermatitis, NC/Nga mice that were not treated with DNCB were maintained under pathogen-free conditions. Laboratory animal breeding management was based on the “Guide for the Care and Use of Laboratory Animals,” and all experiments were approved by the Institutional Animal Care and Use Committees of Gyeonggi Institute of Science & Technology.

Sequence: LQSEVEGVKNIMTQNVE [Vp8N, 17-mer peptide, N-terminal region of VAMP8 SNARE motif]
- epidermal thickness (0.3 and 3% peptide/day dorsally for 4 weeks, n = 10 per group, versus DNCB/vehicle-treated group (Figure 5C)): significantly reduced
- atopic dermatitis features (acanthosis, hypergranulosis, hyperkeratosis) in hematoxylin and eosin-stained sections (0.3 and 3% peptide/day dorsally, 9 to 13 weeks of age, n = 10 per group, compared with 0.1% dexamethasone/day group (Figure 5B)): clearly alleviated to a similar extent
- ear thickness (0.3 and 3% peptide/day or 0.1% dexamethasone/day for 4 weeks, n = 10 per group (Figure 5D)): reduced
- serum IgE levels (daily dorsal application for 4 weeks, n = 10 per group (Figure 5F)): significantly reduced
